Test in all cases: biochemical
One test has as its target T1, ZmDRIK1-R187-P492 (Zea mays, UniProt C0P4K9).
T1 construct: kinase domain, R187-P492
T1 sequence (C0P4K9 1-514): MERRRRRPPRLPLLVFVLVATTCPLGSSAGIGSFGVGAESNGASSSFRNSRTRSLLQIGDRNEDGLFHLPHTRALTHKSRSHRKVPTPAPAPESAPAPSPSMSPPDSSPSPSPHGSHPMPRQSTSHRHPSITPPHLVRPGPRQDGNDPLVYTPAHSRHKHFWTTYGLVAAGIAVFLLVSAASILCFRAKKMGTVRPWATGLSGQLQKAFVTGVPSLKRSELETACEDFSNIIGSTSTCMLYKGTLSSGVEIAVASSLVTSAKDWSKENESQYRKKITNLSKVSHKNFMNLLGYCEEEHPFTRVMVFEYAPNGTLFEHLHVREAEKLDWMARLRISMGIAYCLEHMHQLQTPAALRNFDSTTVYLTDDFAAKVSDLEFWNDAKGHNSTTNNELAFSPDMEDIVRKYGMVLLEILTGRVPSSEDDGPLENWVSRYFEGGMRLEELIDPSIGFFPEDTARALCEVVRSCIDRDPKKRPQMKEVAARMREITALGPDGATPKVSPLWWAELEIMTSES
The conditions noted are these: read-out: dTm B, DSF, Boltzmann fit, 0.1% DMSO.

The next test deals with T2, ZmDRIK1-K217-S514 (Zea mays, UniProt C0P4K9).
T2 construct: kinase domain, K217-S514
T2 sequence (C0P4K9 1-514): T1 sequence (C0P4K9 1-514)
The note with it: read-out: dTm B, sheet ZmDRIK1-K217-S514;; DSF, Boltzmann fit, 0.1% DMSO.

In test [1] the target is T3, ZmDRIK1 (DROUGHT RESPONSIVE INACTIVE KINASE 1), kinase domain (Zea mays, UniProt C0P4K9).
T3 construct: gene ZEAMMB73_Zm00001d028770; ZmDRIK1-KD R187-S514 (kinase domain)
T3 sequence (C0P4K9 187-514): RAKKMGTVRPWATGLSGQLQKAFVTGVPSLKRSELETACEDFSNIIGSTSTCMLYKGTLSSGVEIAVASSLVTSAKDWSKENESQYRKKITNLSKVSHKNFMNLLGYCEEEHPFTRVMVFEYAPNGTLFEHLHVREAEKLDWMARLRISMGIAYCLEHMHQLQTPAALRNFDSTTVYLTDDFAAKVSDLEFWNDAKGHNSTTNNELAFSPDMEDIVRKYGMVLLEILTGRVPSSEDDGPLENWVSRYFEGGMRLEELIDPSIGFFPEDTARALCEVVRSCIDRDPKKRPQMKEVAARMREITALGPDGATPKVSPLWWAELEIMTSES
The conditions noted are these: read-out: dTm B, sheet ZmDRIK1-R187-S514;; DSF, Boltzmann fit, 0.1% DMSO.

The next test concerns the target T4, ZmDRIK1-K217-P492 (Zea mays, UniProt C0P4K9).
T4 construct: kinase domain, K217-P492
T4 sequence (C0P4K9 1-514): T1 sequence (C0P4K9 1-514)
The note with it: read-out: dTm B, sheet ZmDRIK1-K217-P492;; DSF, Boltzmann fit, 0.1% DMSO.

Where a name gives a salt, the structure may show the parent alone.

Take `FC(F)c1nc2ccccc2n1-c1nc(N2CCOCC2)nc(N2CCOCC2)n1` [ZSTK474]: the ΔTm at 10 µM is -0.113 °C at ZmDRIK1-R187-P492, -0.199 °C at ZmDRIK1-K217-S514, -1.02 °C in test [1] and -0.762 °C on ZmDRIK1-K217-P492.
For the compound `C#Cc1cccc(Nc2ncnc3cc(OCCOC)c(OCCOC)cc23)c1` [Erlotinib HCl (OSI-744)], the ΔTm at 10 µM was -0.278 °C at ZmDRIK1-R187-P492, -0.264 °C on ZmDRIK1-K217-S514, -0.54 °C in test [1] and -1.09 °C at ZmDRIK1-K217-P492.
On to `Oc1c2ccccc2c2c3c(cccc13)N=N2` [SP600125], for which the ΔTm at 10 µM at ZmDRIK1-R187-P492 is -0.115 °C; at ZmDRIK1-K217-S514 it was -0.115 °C; in test [1], -0.63 °C; at ZmDRIK1-K217-P492, -1.06 °C.
With `O=c1cc(-c2cccc3c2Sc2ccccc2S3)oc(N2CCOCC2)c1` [KU-55933 (ATM Kinase Inhibitor)], the ΔTm at 10 µM was -0.282 °C at ZmDRIK1-R187-P492, -0.342 °C at ZmDRIK1-K217-S514, -0.601 °C in test [1] and -1.32 °C on ZmDRIK1-K217-P492.
The matching figures for `CNC(=O)c1nn(C)c2c1C(C)(C)Cc1cnc(Nc3ccc(N4CCN(C)CC4)cc3)nc1-2` [Milciclib (PHA-848125)]: -0.101 °C, -0.233 °C, -0.178 °C and -0.0433 °C.
With `CCCS(=O)(=O)Nc1ccc(F)c(C(=O)c2c[nH]c3ncc(-c4ccc(Cl)cc4)cc23)c1F` [Vemurafenib (PLX4032)], the ΔTm at 10 µM on ZmDRIK1-R187-P492 is -7.37 °C; at ZmDRIK1-K217-S514, -0.89 °C; in test [1] it was -21.5 °C; at ZmDRIK1-K217-P492, -0.0662 °C.
Taken in the same sequence, the figures for `CN1CCN(c2nc(C3=C(c4c[nH]c5ccccc45)C(=O)NC3=O)c3ccccc3n2)CC1` [Sotrastaurin] were -0.608 °C, -0.412 °C, -0.541 °C and -0.642 °C.
As to `C1=N/C2=N/c3ccc(OCCN4CCCC4)c(c3)COC/C=C/COCc3cccc(c3)C(=C1)N2` [Pacritinib (SB1518)], the ΔTm at 10 µM on ZmDRIK1-R187-P492 was -0.0853 °C; on ZmDRIK1-K217-S514, 0.03 °C; in test [1] it was 0.0273 °C; on ZmDRIK1-K217-P492 it was 1.04 °C.
For `Cc1c(CN2CCN(C(=O)[C@H](C)O)CC2)sc2c(N3CCOCC3)nc(-c3cnc(N)nc3)nc12` [GDC-0980 (RG7422)], the ΔTm at 10 µM at ZmDRIK1-R187-P492 was -0.177 °C; at ZmDRIK1-K217-S514, -0.304 °C; in test [1] it was -0.737 °C; on ZmDRIK1-K217-P492 it was -1.16 °C.
As for `COc1ccc(-c2cc3c(C)nc(N)nc3n([C@H]3CC[C@H](OCCO)CC3)c2=O)cn1` [PF-04691502], the ΔTm at 10 µM at ZmDRIK1-R187-P492 was -0.18 °C; on ZmDRIK1-K217-S514 it was -0.31 °C; in test [1] it was -0.814 °C; at ZmDRIK1-K217-P492, -0.953 °C.
For the compound `CO[C@H]1C[C@@H]2CC[C@@H](C)[C@@](O)(O2)C(=O)C(=O)N2CCCC[C@H]2C(=O)O[C@H]([C@H](C)C[C@@H]2CC[C@H](n3cnnn3)[C@H](OC)C2)CC(=O)[C@H](C)/C=C(\C)[C@@H](O)[C@@H](OC)C(=O)[C@H](C)C[C@H](C)/C=C/C=C/C=C/1C` [Zotarolimus(ABT-578)], the ΔTm at 10 µM is -0.286 °C at ZmDRIK1-R187-P492, -0.269 °C at ZmDRIK1-K217-S514, -0.396 °C in test [1] and -0.534 °C on ZmDRIK1-K217-P492.
Regarding `COc1ncc(-c2ccc3nccc(-c4ccnnc4)c3c2)cc1NS(=O)(=O)c1ccc(F)cc1F` [GSK2126458 (GSK458)], the ΔTm at 10 µM at ZmDRIK1-R187-P492 was -0.322 °C; on ZmDRIK1-K217-S514 it was -0.505 °C; in test [1], -0.808 °C; at ZmDRIK1-K217-P492 it was -1.03 °C.
`CCNc1nc(Nc2cc(F)c(C(=O)N3CCOCC3)cc2OC)ncc1C(F)(F)F` [GNE-7915]: the ΔTm at 10 µM on ZmDRIK1-R187-P492 is -0.506 °C; at ZmDRIK1-K217-S514, -0.456 °C; in test [1], -0.927 °C; on ZmDRIK1-K217-P492 it was -0.898 °C.
Turning to `O=C1NCCc2[nH]c(-c3ccncc3)cc21` [PHA-767491], the ΔTm at 10 µM at ZmDRIK1-R187-P492 is -0.213 °C; on ZmDRIK1-K217-S514, -0.125 °C; in test [1], -0.701 °C; at ZmDRIK1-K217-P492, -0.984 °C.
For `O=C(O)c1ccc(-c2c[nH]c3ncc(-c4ccccc4)cc23)cc1C1CCCC1` [GSK650394], the ΔTm at 10 µM is -0.485 °C at ZmDRIK1-R187-P492, -0.353 °C at ZmDRIK1-K217-S514, -0.785 °C in test [1] and -1.03 °C at ZmDRIK1-K217-P492.
Consider `CCC[C@H](NC(=O)/C(C#N)=C/c1cccc(Br)n1)c1ccccc1` [Degrasyn (WP1130)], for which the ΔTm at 10 µM is -3.03 °C on ZmDRIK1-R187-P492, -3.28 °C at ZmDRIK1-K217-S514, -5.72 °C in test [1] and -5.21 °C on ZmDRIK1-K217-P492.
For the compound `Cc1cc(Nc2cc(N3CCN(C)CC3)nc(Sc3ccc(NC(=O)C4CC4)cc3)n2)n[nH]1` [VX-680 (Tozasertib)], the ΔTm at 10 µM is -0.37 °C on ZmDRIK1-R187-P492, -0.694 °C on ZmDRIK1-K217-S514, -0.713 °C in test [1] and -1.16 °C at ZmDRIK1-K217-P492.
For `Cc1nc(NC(=O)N2CCC[C@H]2C(N)=O)sc1-c1ccnc(C(C)(C)C(F)(F)F)c1` [BYL719], the ΔTm at 10 µM on ZmDRIK1-R187-P492 is -0.328 °C; at ZmDRIK1-K217-S514 it was -0.465 °C; in test [1], -0.448 °C; on ZmDRIK1-K217-P492 it was -0.718 °C.
With `O=C(Nc1c[nH]nc1-c1nc2ccc(CN3CCOCC3)cc2[nH]1)NC1CC1` [AT9283], the ΔTm at 10 µM is -0.23 °C on ZmDRIK1-R187-P492, -0.536 °C at ZmDRIK1-K217-S514, -0.914 °C in test [1] and -0.742 °C on ZmDRIK1-K217-P492.
For `CO[C@H]1C[C@@H]2CC[C@@H](C)[C@@](O)(O2)C(=O)C(=O)N2CCCC[C@H]2C(=O)O[C@H]([C@H](C)C[C@@H]2CC[C@@H](OCCO)[C@H](OC)C2)CC(=O)[C@H](C)/C=C(\C)[C@@H](O)[C@@H](OC)C(=O)[C@H](C)C[C@H](C)/C=C/C=C/C=C/1C` [Everolimus (RAD001)], the ΔTm at 10 µM on ZmDRIK1-R187-P492 was -0.526 °C; at ZmDRIK1-K217-S514, -0.327 °C; in test [1], -0.644 °C; on ZmDRIK1-K217-P492 it was -1.22 °C.
On to `CCN(CC)CCNC(=O)c1c(C)[nH]c(/C=C2\C(=O)Nc3ccc(F)cc32)c1C` [Sunitinib Malate], for which the ΔTm at 10 µM at ZmDRIK1-R187-P492 is -0.348 °C; on ZmDRIK1-K217-S514, -0.287 °C; in test [1], -0.745 °C; at ZmDRIK1-K217-P492 it was -0.864 °C.
In the case of `CC(C)(C)c1cc(C=C(C#N)C#N)cc(C(C)(C)C)c1O` [Tyrphostin 9], the ΔTm at 10 µM was -0.79 °C on ZmDRIK1-R187-P492, -0.346 °C on ZmDRIK1-K217-S514, -0.564 °C in test [1] and -0.298 °C at ZmDRIK1-K217-P492.
As to `C[C@]1(O)C[C@@H](c2nc(-c3ccc4ccc(-c5ccccc5)nc4c3)c3c(N)nccn32)C1` [OSI-906 (Linsitinib)], the ΔTm at 10 µM on ZmDRIK1-R187-P492 is -0.547 °C; on ZmDRIK1-K217-S514 it was -0.681 °C; in test [1] it was -0.97 °C; on ZmDRIK1-K217-P492, -0.53 °C.
Consider `Cc1cc2c(F)c(Oc3ncnn4cc(OC[C@@H](C)OC(=O)[C@H](C)N)c(C)c34)ccc2[nH]1` [Brivanib Alaninate (BMS-582664)], for which the ΔTm at 10 µM at ZmDRIK1-R187-P492 is -0.504 °C; on ZmDRIK1-K217-S514 it was -0.426 °C; in test [1] it was -1.08 °C; at ZmDRIK1-K217-P492 it was -1 °C.
As to `O=c1[nH]c2ccc(Cl)cc2c(N[C@@H]2CN3CCC2CC3)c1-c1nc2ccccc2[nH]1` [CHIR-124], the ΔTm at 10 µM on ZmDRIK1-R187-P492 was -0.356 °C; at ZmDRIK1-K217-S514 it was -0.3 °C; in test [1], -0.602 °C; at ZmDRIK1-K217-P492, -0.621 °C.
Taken in the same sequence, the figures for `Nc1nc(N)c2nc(-c3cccc(O)c3)c(-c3cccc(O)c3)nc2n1` [TG100-115] were -0.347 °C, -0.395 °C, -0.852 °C and -0.6 °C.
As to `O=C(Nc1ccc(OC(F)(F)F)cc1)c1sccc1NCc1ccnc2ccccc12` [OSI-930], the ΔTm at 10 µM is -3.67 °C at ZmDRIK1-R187-P492, -5.53 °C at ZmDRIK1-K217-S514, -0.0551 °C in test [1] and -0.971 °C at ZmDRIK1-K217-P492.
Taken in the same sequence, the figures for `CCNC(=O)Nc1ccc(-c2nc3c(c(N4CCOC[C@@H]4C)n2)CCN(C2COC2)C3)cc1` [GDC-0349] were -0.218 °C, -0.392 °C, -0.899 °C and -0.749 °C.
